Patent publication US6900184B2, “Compositions containing pipercillin and tazobactam useful for injection” (Wyeth Holdings Corporation, priority 2003, dated 2005)

Assay: Light obscuration particulate testing (HIAC-3000, based on USP 788), at time zero and 24 hours
Format: physicochemical
Conditions: in Zosyn solutions, summary of Table 1
Protocol: Samples are prepared according to the compositions described in Table I. […] The fluid in the bag is mixed with gentle inversions for about 30 seconds. • The bags are labeled with identity and reconstitution time. • When added, aminoglycosides are added immediately. The fluid in the bag is mixed with gentle inversions for about 30 seconds. • A 50 ml sample is drawn with a 60 cc syringe fitted with a 21-gauge needle. • A clean, particle free vial is rinsed with water for injection, and then filled with about 45 ml of the sample. HIAC testing is performed immediately. • Into a suitably sized sample vial, a 3 ml sample is prepared for HPLC testing. HPLC testing is begun within an hour of sample preparation (Table 1). The remainder of the Zosyn® admixture samples (about 50 ml) are stored in a closed cabinet in the laboratory, at ambient temperature and tested again 24 hours later (Table 1). Light obscuration testing is performed using a HIAC-3000. A testing method, based on USP 788 is followed for the analysis. (See TABLE I) The data is reported on a particle per ml basis. […] The same sample was resampled and analyzed 24 hours after the first test. A summary of the HIAC data is provided as Table I.

Structure (SMILES)	effect of added EDTA (edetate disodium dihydrate) on number of particles generated	effect of added aminoglycoside on number of particles generated
O=C(O)CN(CCN(CC(=O)O)CC(=O)O)CC(=O)O [EDTA, ethylene diamine tetraacetic acid]	significantly reduces the number of particles generated in 24 hours	
NCC[C@H](O)C(=O)N[C@@H]1C[C@H](N)[C@@H](O[C@H]2O[C@H](CN)[C@@H](O)[C@H](O)[C@H]2O)[C@H](O)[C@H]1O[C@H]1O[C@H](CO)[C@@H](O)[C@H](N)[C@H]1O [amikacin]		increases the number of particles generated in 24 hours
